{"source": "patent US20100015174A1", "about": "“METHOD TO CONTROL DENGUE VIRUSES IN HUMANS BY PICOLINIC ACID AND DERIVATIVES THEREOF” (priority 2008, published 2010)", "key": {"[1]": {"test_system": "human hepatitis B virus (HBV)", "assay": "HBV DNA by real-time PCR after 9-day treatment of HepG2.2.15 cells", "type": "cell-based", "settings": "9 days; for EC50: 216 h, HepG2.2.15 cells, read-out: overall EC50 against HBV; for inhibition at 250 µg/mL / inhibition at 60 µg/mL: HepG2.2.15, 216 h; for inhibition at 250 µg/mL: 250 ug/mL; for inhibition at 60 µg/mL: 60 ug/mL", "description": "(§1) Here we evaluate the antiviral efficacy of picolinic acid and fusaric acid against human hepatitis B virus (HBV). HepG2.2.15 cells, a cell line that was stably transfected with HBV genome was used to study the antiviral effects of PA and FA against HBV. HepG2.2.15 cells were cultured under standard conditions. HepG2.2.15 cells were seeded in a 96-well plate at 2×10^4 cells/well and grown for 24 hours. The medium was replaced with 100 uL of medium containing PA at increasing concentrations (0, 10, 100, 250, and 500 ug/mL). The concentrations of FU used were 0, 1, 10, 30, 60, and 100 ug/mL. The cells were incubated at 37° C. for 9 days. The control medium and the medium containing the antivirals were changed every 24 hours. At day 9, the culture medium containing the released HBV virions was collected, the cells washed with PBS, and lysed with lysis buffer. All samples were stored at −70° C. until analyzed.\nHBV DNA from drug-treated […] cell culture medium and cell lysates was extracted using QIAamp DNA mini kit, according to manufacturer's specifications.\nPCR reaction was performed in 20 uL, comprising the following compounds: dH2O; 25 mM MgCl2; 10 uM sense primer; 10 uM antisense primer; LightCycler Probe 1 (fluorescent-labeled, 5 uM); LightCycler Probe 2 (LC Red 640-labeled, 10 uM); LC FastStart DNA Master Hyb Probes; and Uracil DNA glycosylase (1 uL).\nPCR mix was aliquoted and 5 uL DNA template was then added to the PCR mix. A range of HBV plasmid DNA (1×10^8, 1×10^7, 1×10^6, [ . . . ], 1×10^2, 25 copies) were used as standards for quantitative analysis.\nTo study the antiviral activities of PA and FA against HBV, HepG2.2.15 cells were incubated with increasing concentrations of test compounds for 9 days with medium change daily. At day 9, the medium containing secreted HBV virions was collected and used for extraction of extracellular virus DNA. The cells were lysed by 0.5% SDS and used for extraction of intracellular virus DNA. DNA was extracted using Qiagen column and then quantitatively detected by real-time PCR assay."}, "CMV AD 169 strain": {"test_system": "CMV AD 169 strain", "assay": "CMV replication in HEL-299 cells (virus titration)", "type": "cell-based, Cytomegalovirus", "settings": "Human betaherpesvirus 5, 72 h, 3 days, read-out: EC50 for inhibition of CMV replication", "description": "CMV AD 169 strain (ATCC) was used in the experiments. A CMV susceptible cell line, human fibroblast cells HEL-299 (ATCC), was used in the plaque reduction assays.\n90% confluent HEL-299 cells were washed and then Infected with CMV AD169 at 0.5 moi for 2 h at 37° C. Following removal of viral inoculums, the Infected cells were washed and exposed to different concentrations of PA (final concentrations: 0, 10, 100, 250, 500, and 1000 ug/mL) or FA (final concentrations: 0, 1, 10, 30, 60, and 100 ug/mL for 3 days. The culture medium was collected for titration of released virions and the cells were harvested for titration of intracellular virions.\n90% confluent HEL-299 cells in 24 well plates were Infected with 200 uL of CMV dilutions at 37° C. for 2 h. Following removal of virus inoculums, the infected cells were washed with PBS and overlaid with 0.5% methylcellulose in culture medium. We then treated CMV Infected cells for 3 days at 37° C. with different concentrations of PA and FA. The culture medium was collected for titration of released virus and the cells were harvested for titration of intracellular virus."}, "Sindbis replicon": {"test_system": "Sindbis replicon", "assay": "Sindbis replicon (qRTCPCR/iCycler) in Huh7B/Sindbis cells", "type": "cell-based, Sindbis virus", "settings": "for inhibition of Sindbis replicon: at all concentrations tested", "description": "Here we determine the effects of Picolinic acid and Fusaric Acid on Sindbis replicon in Huh7B/Sindbis cells. The Sindbis replicons were studied by qRTCPCR/iCycler. Normalization by OD and serial dilutions were done in the untreated cell line. The experimental design was as follows: cells were grown in 12 well cell culture plates; the compounds interaction was done for 24 hours; at extraction, cell confluence was 75%; and RNA was extracted using Qiagen Rneasy extraction kit."}, "HepG2.2.15 cells": {"test_system": "HepG2.2.15 cells", "assay": "Toxicity to HepG2.2.15 cells (9-day treatment)", "type": "cell-based", "description": "as §1"}, "[2]": {"settings": "read-out: inhibition of intracellular HBV DNA"}, "[3]": {"settings": "read-out: inhibition of released HBV DNA"}}, "note": "Values joined by “and” are separate entries in the source; they are usually repeats but may differ in a detail not shown here. Equal entries are not always repeated. Where two headings read alike, the source gives them in different places.", "data": [{"compound": "O=C(O)c1ccccn1", "note": "[PA, picolinic acid]", "values": [{"measurement": "EC50", "setting": "[1]", "value": "~139", "unit": "µg/mL"}, {"measurement": "inhibition at 250 µg/mL", "setting": "[1]; [2]", "value": 79.4, "unit": "%"}, {"measurement": "inhibition at 250 µg/mL", "setting": "[1]; [3]", "value": 72.3, "unit": "%"}, {"measurement": "EC50", "setting": "CMV AD 169 strain", "value": "~230", "unit": "µg/mL"}, {"measurement": "Sindbis replicon % CTRL", "setting": "Sindbis replicon; PA 100, 24 hours", "value": 6.5, "unit": "% CTRL"}, {"measurement": "Sindbis replicon AVE", "setting": "Sindbis replicon; PA 100, 24 hours", "value": 23.7}, {"measurement": "Sindbis replicon, single reading", "setting": "Sindbis replicon; PA 100, 24 hours", "value": "24.1 and 23.7 and 23.5 and 23.6"}, {"measurement": "Sindbis replicon % CTRL", "setting": "Sindbis replicon; PA 300, 24 hours", "value": 11.3, "unit": "% CTRL"}, {"measurement": "Sindbis replicon AVE", "setting": "Sindbis replicon; PA 300, 24 hours", "value": 23.3}, {"measurement": "Sindbis replicon, single reading", "setting": "Sindbis replicon; PA 300, 24 hours", "value": "24.3 and 23.7 and 21.6"}, {"measurement": "Sindbis replicon % CTRL", "setting": "Sindbis replicon; PA 400, 24 hours", "value": 6.7, "unit": "% CTRL"}, {"measurement": "Sindbis replicon AVE", "setting": "Sindbis replicon; PA 400, 24 hours", "value": 23.7}, {"measurement": "Sindbis replicon, single reading", "setting": "Sindbis replicon; PA 400, 24 hours", "value": "24.0 and 23.5 and 23.2 and 24.3"}, {"measurement": "inhibition of Sindbis replicon", "setting": "Sindbis replicon", "value": "greater than 90%"}, {"measurement": "Sindbis replicon % CTRL", "setting": "Sindbis replicon; column PA 200, 24 hours", "value": 6.5, "unit": "% CTRL"}, {"measurement": "Sindbis replicon AVE", "setting": "Sindbis replicon; column PA 200, 24 hours", "value": 23.8}, {"measurement": "Sindbis replicon, single reading", "setting": "Sindbis replicon; column PA 200, 24 hours", "value": "24.1 and 22.9 and 24.2"}, {"measurement": "toxicity to HepG2.2.15 cells", "setting": "HepG2.2.15 cells; 500 ug/ml", "value": "500 ug/ml was slightly toxic to HepG2.2.15 cells."}]}, {"compound": "CCCCc1ccc(C(=O)O)nc1", "note": "[FA, fusaric acid]", "values": [{"measurement": "EC50", "setting": "[1]", "value": "> 60", "unit": "µg/mL"}, {"measurement": "inhibition at 60 µg/mL", "setting": "[1]; [2]", "value": 28, "unit": "%"}, {"measurement": "inhibition at 60 µg/mL", "setting": "[1]; [3]", "value": 76.5, "unit": "%"}, {"measurement": "EC50", "setting": "CMV AD 169 strain", "value": "~60", "unit": "µg/mL"}, {"measurement": "Sindbis replicon % CTRL", "setting": "Sindbis replicon; FA 5, 24 hours", "value": 14.0, "unit": "% CTRL"}, {"measurement": "Sindbis replicon AVE", "setting": "Sindbis replicon; FA 5, 24 hours", "value": 22.7}, {"measurement": "Sindbis replicon, single reading", "setting": "Sindbis replicon; FA 5, 24 hours", "value": "22.7 and 23.3 and 23.1 and 21.7"}, {"measurement": "Sindbis replicon % CTRL", "setting": "Sindbis replicon; FA 25, 24 hours", "value": 11.6, "unit": "% CTRL"}, {"measurement": "Sindbis replicon AVE", "setting": "Sindbis replicon; FA 25, 24 hours", "value": 22.9}, {"measurement": "Sindbis replicon, single reading", "setting": "Sindbis replicon; FA 25, 24 hours", "value": "23.0 and 22.7 and 22.4 and 23.5"}, {"measurement": "Sindbis replicon % CTRL", "setting": "Sindbis replicon; FA 50, 24 hours", "value": 9.3, "unit": "% CTRL"}, {"measurement": "Sindbis replicon AVE", "setting": "Sindbis replicon; FA 50, 24 hours", "value": 23.3}, {"measurement": "Sindbis replicon, single reading", "setting": "Sindbis replicon; FA 50, 24 hours", "value": "22.8 and 23.4 and 22.7 and 24.2"}, {"measurement": "Sindbis replicon % CTRL", "setting": "Sindbis replicon; FA 100, 24 hours", "value": 8.8, "unit": "% CTRL"}, {"measurement": "Sindbis replicon AVE", "setting": "Sindbis replicon; FA 100, 24 hours", "value": 23.5}, {"measurement": "Sindbis replicon, single reading", "setting": "Sindbis replicon; FA 100, 24 hours", "value": "22.2 and 23.8 and 24.0 and 23.9"}, {"measurement": "inhibition of Sindbis replicon", "setting": "Sindbis replicon", "value": "> 85", "unit": "%"}, {"measurement": "toxicity to HepG2.2.15 cells", "setting": "HepG2.2.15 cells; 100 ug/ml", "value": "100 ug/ml was toxic to HepG2.2.15 cells."}]}]}
